Test results: EP4707277A1, “NOVEL HETEROCYCLIC AMINE DERIVATIVES AND PHARMACEUTICAL COMPOSITION COMPRISING SAME” (Daewoong Pharmaceutical Co., Ltd., priority 2023, dated 2024)
Like-named read-outs stand apart in the source and are kept apart here.

What was measured:
ITK = molecular target: T1, ITK (Homo sapiens, UniProt Q08881); assay: Inhibitory activity against ITK, ADP-Glo Kinase system (Promega); assay type: biochemical
T1 construct: purchased Signalchem I13-11G-10
T1 sequence (Q08881 1-620): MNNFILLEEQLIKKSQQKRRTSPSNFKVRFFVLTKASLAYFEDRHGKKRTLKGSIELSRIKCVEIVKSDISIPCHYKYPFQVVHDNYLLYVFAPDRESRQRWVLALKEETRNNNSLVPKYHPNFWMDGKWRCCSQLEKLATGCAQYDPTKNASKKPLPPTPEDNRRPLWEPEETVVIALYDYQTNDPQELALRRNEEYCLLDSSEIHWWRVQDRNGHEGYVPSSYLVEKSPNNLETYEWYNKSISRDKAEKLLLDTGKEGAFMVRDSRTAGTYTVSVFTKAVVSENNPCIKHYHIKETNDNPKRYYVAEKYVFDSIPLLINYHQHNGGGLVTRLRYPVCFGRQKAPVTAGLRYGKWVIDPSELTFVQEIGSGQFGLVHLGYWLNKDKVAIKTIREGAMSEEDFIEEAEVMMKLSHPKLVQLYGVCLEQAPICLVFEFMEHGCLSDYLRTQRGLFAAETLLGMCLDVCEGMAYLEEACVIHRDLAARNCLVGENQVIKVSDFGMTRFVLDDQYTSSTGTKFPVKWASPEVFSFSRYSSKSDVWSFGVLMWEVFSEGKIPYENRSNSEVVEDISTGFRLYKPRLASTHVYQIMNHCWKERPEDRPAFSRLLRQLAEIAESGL
In short: (§1)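 IC50 values were fitted from kinase reactions run for 1 h at 30°C with either 1 mM ATP or ATP at Km (10 µM for BTK, 25 µM for ITK). Reactions used 0.2 µg/µl poly(Glu4,Tyr1), recombinant human enzyme (BTK 10 ng, ITK 4 ng per reaction) in Tris pH 7.5 Mn/Mg buffer with 1% DMSO. ADP formed was read by ADP-Glo luminescence.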

BTK = molecular target: T2, BTK (Homo sapiens, UniProt Q06187); assay: Inhibitory activity against BTK, ADP-Glo Kinase system (Promega); assay type: biochemical
T2 construct: purchased Signalchem B10-10H
In short: as §1

[1] = Km ATP (ITK: 25uM), read-out: ITK IC50(nM) Km ATP
[2] = Km ATP (BTK: 10 uM), read-out: BTK IC50(nM) Km ATP
[3] = 1mM ATP, read-out: ITK IC50(nM) 1mM ATP
[4] = 1mM ATP, read-out: BTK IC50(nM) 1mM ATP

T2 sequence (Q06187 whole entry): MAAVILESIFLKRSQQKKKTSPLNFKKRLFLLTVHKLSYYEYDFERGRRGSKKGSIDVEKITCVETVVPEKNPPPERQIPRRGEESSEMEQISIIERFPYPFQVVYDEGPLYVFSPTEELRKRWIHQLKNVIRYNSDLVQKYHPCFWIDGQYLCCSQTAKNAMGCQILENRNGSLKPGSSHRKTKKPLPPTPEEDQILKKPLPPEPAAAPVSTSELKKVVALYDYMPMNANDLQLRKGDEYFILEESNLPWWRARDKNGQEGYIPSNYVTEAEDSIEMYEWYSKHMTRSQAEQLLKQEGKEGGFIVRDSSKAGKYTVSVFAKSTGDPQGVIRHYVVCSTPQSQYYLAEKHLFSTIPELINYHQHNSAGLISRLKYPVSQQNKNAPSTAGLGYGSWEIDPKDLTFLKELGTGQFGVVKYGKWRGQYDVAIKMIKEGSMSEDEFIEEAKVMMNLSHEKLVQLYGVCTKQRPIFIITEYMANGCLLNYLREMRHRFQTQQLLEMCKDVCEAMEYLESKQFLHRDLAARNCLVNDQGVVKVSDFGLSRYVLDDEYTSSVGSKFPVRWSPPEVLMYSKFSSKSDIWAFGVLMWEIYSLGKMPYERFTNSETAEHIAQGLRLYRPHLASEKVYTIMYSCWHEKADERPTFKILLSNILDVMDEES

IC50 (ITK; [1]) | IC50 (BTK; [2]) | IC50 (ITK; [3]) | IC50 (BTK; [4]) | Structure (SMILES)
≤ 20 nM | ≤ 20 nM | – | – | C=CC(=O)Nc1cc(-c2nc(Nc3ncc(C)s3)cc3c2ccn3C)ccc1C [Example 55, N-(2-methyl-5-(1-methyl-6-((5-methylthiazol-2-yl)amino)-1H-pyrrolo[3,2-c]pyridin-4-yl)phenyl)acrylamide]
– | – | ≤ 20 nM | ≤ 20 nM | C=CC(=O)N1CC(C)(Oc2nc(Nc3ncc(C)s3)cc3c2ccn3CC2CCCC2)C1 [Example 178, 1-(3-((1-(cyclopentylmethyl)-6-((5-methylthiazol-2-yl)amino)-1H-pyrrolo[3,2-c]pyridin-4-yl)oxy)-3-methylazetidin-1-yl)prop-2-en-1-one]
≤ 20 nM | ≤ 20 nM | ≤ 20 nM | ≤ 20 nM | C=CC(=O)N1C2C=C(c3nc(Nc4ncc(C)s4)cc4c3ccn4C)CC1CC2 (centres unmarked) [Example 28, 1-(3-(1-methyl-6-((5-methylthiazol-2-yl)amino)-1H-pyrrolo[3,2-c]pyridin-4-yl)-8-azabicyclo[3.2.1]oct-2-en-8-yl)prop-2-en-1-one]
– | – | ≤ 20 nM | ≤ 20 nM | C=CC(=O)N1C2C=C(c3nc(Nc4ncc(C)s4)cc4c3ccn4C)CC1CCC2 (centres unmarked) [Example 36, 1-(3-(1-methyl-6-((5-methylthiazol-2-yl)amino)-1H-pyrrolo[3,2-c]pyridin-4-yl)-9-azabicyclo[3.3.1]non-2-en-9-yl)prop-2-en-1-one]
100 to 500 nM | ≤ 20 nM | – | – | C=CC(=O)Nc1cc(C)cc(-c2nc(Nc3ncc(C)s3)cc3c2ccn3C)c1 [Example 53, N-(3-methyl-5-(1-methyl-6-((5-methylthiazol-2-yl)amino)-1H-pyrrolo[3,2-c]pyridin-4-yl)phenyl)acrylamide]
20 to 100 nM | ≤ 20 nM | – | – | C=CC(=O)Nc1cc(-c2nc(Nc3ncc(C)s3)cc3c2ccn3CC(F)F)ccc1F [Example 76, N-(5-(1-(2,2-difluoroethyl)-6-((5-methylthiazol-2-yl)amino)-1H-pyrrolo[3,2-c]pyridin-4-yl)-2-fluorophenyl)acrylamide]
– | – | 20 to 100 nM | ≤ 20 nM | C=CC(=O)N1CCC[C@@H]1COc1nc(Nc2ncc(C)s2)cc2c1ccn2C(C)C [Example 89, (R)-1-(2-(((1-isopropyl-6-((5-methylthiazol-2-yl)amino)-1H-pyrrolo[3,2-c]pyridin-4-yl)oxy)methyl)pyrrolidin-1-yl)prop-2-en-1-one]
– | – | 20 to 100 nM | 20 to 100 nM | C=CC(=O)N1C[C@H](F)[C@H](Oc2nc(Nc3cc(C)[nH]n3)cc3c2ccn3CC(C)C)C1 [Example 196, 1-((3S,4R)-3-fluoro-4-((1-isobutyl-6-((5-methyl-1H-pyrazol-3-yl)amino)-1H-pyrrolo[3,2-c]pyridin-4-yl)oxy)pyrrolidin-1-yl)prop-2-en-1-one]
– | – | ≤ 20 nM | 20 to 100 nM | Cc1cnc(Nc2cc3c(ccn3CC(C)C)c(O[C@@H]3CN(C(=O)CCl)C[C@@H]3F)n2)s1 [Example 229, 2-chloro-1-((3S,4R)-3-fluoro-4-((1-isobutyl-6-((5-methylthiazol-2-yl)amino)-1H-pyrrolo[3,2-c]pyridin-4-yl)oxy)pyrrolidin-1-yl)ethan-1-one]
– | – | ≤ 20 nM | ≤ 20 nM | C=CC(=O)N1C[C@H](F)[C@H](Oc2nc(Nc3ncc(C)s3)cc3c2ccn3[C@@H](C)CC)C1 [Example 112, 1-((3R,4S)-3-((1-((S)-sec-butyl)-6-((5-methylthiazol-2-yl)amino)-1H-pyrrolo[3,2-c]pyridin-4-yl)oxy)-4-fluoropyrrolidin-1-yl)prop-2-en-1-one]
– | – | ≤ 20 nM | ≤ 20 nM | C=CC(=O)N1C2C=C(c3nc(Nc4ncc(C)s4)cc4c3ccn4CC3CC3)CC1CC2 (centres unmarked) [Example 39, 1-(3-(1-(cyclopropylmethyl)-6-((5-methylthiazol-2-yl)amino)-1H-pyrrolo[3,2-c]pyridin-4-yl)-8-azabicyclo[3.2.1]oct-2-en-8-yl)prop-2-en-1-one]
≤ 20 nM | ≤ 20 nM | 100 to 500 nM | 20 to 100 nM | C=CC(=O)N1CC=C(c2nc(Nc3ncc(C)s3)cc3c2ccn3CC(F)(F)F)CC1 [Example 19, 1-(4-(6-((5-methylthiazol-2-yl)amino)-1-(2,2,2-trifluoroethyl)-1H-pyrrolo[3,2-c]pyridin-4-yl)-3,6-dihydropyridin-1(2H)-yl)prop-2-en-1-one]
– | – | 100 to 500 nM | 20 to 100 nM | C=CC(=O)N1C[C@H](F)[C@H](Oc2nc(Nc3cc[nH]n3)cc3c2ccn3CC(C)C)C1 [Example 195, 1-((3R,4S)-3-((6-((1H-pyrazol-3-yl)amino)-1-isobutyl-1H-pyrrolo[3,2-c]pyridin-4-yl)oxy)-4-fluoropyrrolidin-1-yl)prop-2-en-1-one]
– | – | 100 to 500 nM | 20 to 100 nM | C=CC(=O)N1CC=C(c2nc(Nc3cc(C(F)(F)F)ncn3)cc3c2ccn3C(C)C)CC1 [Example 45, 1-(4-(1-isopropyl-6-((6-(trifluoromethyl)pyrimidin-4-yl)amino)-1H-pyrrolo[3,2-c]pyridin-4-yl)-3,6-dihydropyridin-1(2H)-yl)prop-2-en-1-one]
– | – | ≤ 20 nM | ≤ 20 nM | C=CC(=O)N1C[C@@H](F)[C@H](Oc2nc(Nc3ncc(C)s3)cc3c2ccn3C(C)C)C1 [Example 91, 1-((3R,4R)-3-fluoro-4-((1-isopropyl-6-((5-methylthiazol-2-yl)amino)-1H-pyrrolo[3,2-c]pyridin-4-yl)oxy)pyrrolidin-1-yl)prop-2-en-1-one]
– | – | ≤ 20 nM | ≤ 20 nM | C=CC(=O)N1C[C@@H](Oc2nc(Nc3ncc(C)s3)cc3c2ccn3C(C)C)C[C@@H]1C [Example 88, 1-((2S,4S)-4-((1-isopropyl-6-((5-methylthiazol-2-yl)amino)-1H-pyrrolo[3,2-c]pyridin-4-yl)oxy)-2-methylpyrrolidin-1-yl)prop-2-en-1-one]
≤ 20 nM | ≤ 20 nM | – | – | C=CC(=O)N1CC=C(c2nc(Nc3ncc(C)s3)cc3c2ccn3[C@@H](C)CC)CC1 [Example 13, (S)-1-(4-(1-(sec-butyl)-6-((5-methylthiazol-2-yl)amino)-1H-pyrrolo[3,2-c]pyridin-4-yl)-3,6-dihydropyridin-1(2H)-yl)prop-2-en-1-one]
20 to 100 nM | ≤ 20 nM | – | – | C=CC(=O)Nc1cc(-c2nc(Nc3ncc(C)s3)cc3c2ccn3CC2CC2)ccc1C [Example 65, N-(5-(1-(cyclopropylmethyl)-6-((5-methylthiazol-2-yl)amino)-1H-pyrrolo[3,2-c]pyridin-4-yl)-2-methylphenyl)acrylamide]
– | – | ≤ 20 nM | ≤ 20 nM | C=CC(=O)N1C[C@@H](F)[C@H](Oc2nc(Nc3ncc(C)s3)cc3c2ccn3CC)C1 [Example 154, 1-((3R,4R)-3-((1-ethyl-6-((5-methylthiazol-2-yl)amino)-1H-pyrrolo[3,2-c]pyridin-4-yl)oxy)-4-fluoropyrrolidin-1-yl)prop-2-en-1-one]
– | – | ≤ 20 nM | ≤ 20 nM | C=CC(=O)N1C[C@H](F)[C@H](Oc2nc(Nc3ncc(C)s3)cc3c2ccn3CC2CCCC2)C1 [Example 132, 1-((3R,4S)-3-((1-(cyclopentylmethyl)-6-((5-methylthiazol-2-yl)amino)-1H-pyrrolo[3,2-c]pyridin-4-yl)oxy)-4-fluoropyrrolidin-1-yl)prop-2-en-1-one]
